Source: PMC11784096, “Synthesis, antibacterial evaluation and in silico studies of novel 2-(benzo[d]thiazol-2-yl)-N-arylacetamides and their derivatives as potential DHFR inhibitors” (BMC Chemistry, 2025)
≈ marks a conversion by molar mass, not a printed value. Like-named read-outs stand apart in the source and are kept apart here.

Tests used:
E. coli [1] = assay: Agar diffusion method, inhibition zone diameter; assay type: cell-based, Escherichia coli; details: Gram-negative
Description: (§1) The bacterial growth inhibition activity of most of the newly synthesized compounds was examined against different Gram-positive and Gram-negative strains. The Agar diffusion method was used to assess the antibacterial and antifungal activity. The Gram-negative strains were: E. coli, K. pneumonia, P. aeruginosa and A. baumannii, the Gram-positive strains were: St. aureus, St. mutans and the standard antibiotics were gentamicin, tigecycline and ampicillin.
(§2) The agar-based media plate surface was inoculated by spreading a volume of the microbial inoculum over the entire agar surface.
(§3) Using a sterile cork borer or a tip, a hole with a diameter of 6 to 8 mm was made.
(§4) Using a micropipette, (20 µL) volume of the antimicrobial agent or extract solution at the desired concentration was introduced into the well.
(§5) The inoculated plates were incubated under suitable conditions depending upon the tested microorganism. The antimicrobial agent diffused through the agar medium and inhibited the growth of the microbial strain tested.
(§6) After a suitable incubation period (16 to 48 hours) according to the optimum growth conditions, the resulting inhibition zone diameters (in mm) around the wells were measured to the nearest whole millimeter at the point at which there is a prominent reduction in growth. If growth is insufficient at the recommended times, the plates should be re-incubated and read later.

K. pneumonia [2] = assay: Agar diffusion method, inhibition zone diameter; assay type: cell-based, Klebsiella pneumonia; details: Gram-negative
Description: as §1, §2, §3, §4, §5, §6

St. aureus [3] = assay: Agar diffusion method, inhibition zone diameter; assay type: cell-based, Staphylococcus aureus; details: Gram-positive
Description: as §1, §2, §3, §4, §5, §6

E. coli [4] = assay: Minimum inhibition concentration, serial dilution; assay type: cell-based, Escherichia coli; details: Escherichia coli, 37 °C
Method: (§7) For each strain, three to five isolated colonies were selected from the fresh agar plate and transferred into a tube containing 3-4 ml of the sterile broth medium. The bacterial suspension was mixed well and incubated at 35-37 °C for 2-6 hours. […] After that, 1 mg of the tested compound (antimicrobial agent) was dissolved in 1 ml of DMSO and a two-fold serial dilution was done using a broth medium. A fixed volume of the prepared bacterial inoculum was added to each tube and incubated at 37 °C for 16-20 hours. The MIC is defined as the lowest concentration of the antimicrobial agent that inhibits visible growth of the tested isolate as observed with the unaided eye.

K. pneumonia [5] = assay: Minimum inhibition concentration, serial dilution; assay type: cell-based, Klebsiella pneumonia; details: Klebsiella pneumoniae, 37 °C
Method: as §7

A. baumannii [6] = assay: Minimum inhibition concentration, serial dilution; assay type: cell-based, Acinetobacter baumannii; details: Acinetobacter baumannii, 37 °C
Method: as §7

St. aureus [7] = assay: Minimum inhibition concentration, serial dilution; assay type: cell-based; details: Staphylococcus aureus, 37 °C
Method: as §7

St. mutans [8] = assay: Minimum inhibition concentration, serial dilution; assay type: cell-based; details: Streptococcus mutans, 37 °C
Method: as §7

any bacterial strain = assay: Agar diffusion method, stated for all strains together; assay type: cell-based; details: in words
Description: as §1, §2, §3, §4, §5, §6

P. aeruginosa [9] = assay: Agar diffusion method, inhibition zone diameter; assay type: cell-based, Pseudomonas aeruginosa; details: Gram-negative
Description: as §1, §2, §3, §4, §5, §6

A. baumannii [10] = assay: Agar diffusion method, inhibition zone diameter; assay type: cell-based, Acinetobacter baumannii; details: Gram-negative
Description: as §1, §2, §3, §4, §5, §6

St. mutans [11] = assay: Agar diffusion method, inhibition zone diameter; assay type: cell-based; details: Gram-positive
Description: as §1, §2, §3, §4, §5, §6

P. aeruginosa [12] = assay: Minimum inhibition concentration, serial dilution; assay type: cell-based, Pseudomonas aeruginosa; details: Pseudomonas aeruginosa, 37 °C
Method: as §7

[13] = target: dihydrofolate reductase in Escherichia coli (Escherichia coli, UniProt P0ABQ4); assay: In vitro DHFR inhibition assessment; assay type: biochemical; details: for inhibitory activity against DHFR relative to trimethoprim: fold of trimethoprim, in words
dihydrofolate reductase in Escherichia coli, sequence (P0ABQ4 whole entry): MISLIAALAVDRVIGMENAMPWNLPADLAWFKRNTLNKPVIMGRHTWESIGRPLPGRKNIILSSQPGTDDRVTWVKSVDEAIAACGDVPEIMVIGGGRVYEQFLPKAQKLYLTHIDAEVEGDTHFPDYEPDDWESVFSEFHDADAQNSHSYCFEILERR

[14] = tested on: all tested Gram-negative and Gram-positive strains; assay: Minimum inhibition concentration, stated for all tested strains together; assay type: cell-based
Method: as §7

DHFR [15] = tested on: DHFR; design: method as in PMID 28789907; details: read-out: IC50 DHFR inhibition; cited from earlier work
DHFR [16] = tested on: DHFR; design: method as in doi:10.1007/s00706-017-2032-7; details: read-out: IC50 against DHFR activity; cited from earlier work
[17] = tested on: St. aureus, B. subtilis, K. pneumonia and E. coli; design: method as in doi:10.1007/s12039-020-01844-8; details: as printed in Fig. 2; cited from earlier work
[18] = tested on: E. coli and P. aeruginosa; design: method as in earlier work; details: cited from earlier work

## O=C(Cc1nc2ccccc2s1)Nc1ccccc1 [2a, 2-(Benzo[d]thiazol-2-yl)-N-phenylacetamide]
E. coli [1]
  IZD E. coli: 34 ± 0.5 mm
K. pneumonia [2]
  IZD K. pneumonia: 34 ± 0.8 mm
St. aureus [3]
  IZD St. aureus: 31 ± 1 mm
E. coli [4]
  MIC: 0.25 µg/mL (≈ 0.932 µM)
K. pneumonia [5]
  MIC: 0.125 µg/mL (≈ 0.466 µM)
A. baumannii [6]
  MIC: 0.125 µg/mL (≈ 0.466 µM)
St. aureus [7]
  MIC: 0.25 µg/mL (≈ 0.932 µM)
St. mutans [8]
  MIC: 0.0625 µg/mL (≈ 0.233 µM)

## Cc1ccc(NC(=O)Cc2nc3ccccc3s2)cc1 [2b, 2-(Benzo[d]thiazol-2-yl)-N-(p-tolyl)acetamide]
Any bacterial strain
  antibacterial activity against any bacterial strain: no activity

## O=C(Cc1nc2ccccc2s1)Nc1ccc(Cl)cc1 [2c, 2-(Benzo[d]thiazol-2-yl)-N-(4-chlorophenyl)acetamide]
E. coli [1]
  IZD E. coli: 35 ± 1 mm
K. pneumonia [2]
  IZD K. pneumonia: 35 ± 1 mm
P. aeruginosa [9]
  IZD P. aeruginosa: 36 ± 1 mm
A. baumannii [10]
  IZD A. baumannii: 35 ± 1 mm
St. aureus [3]
  IZD St. aureus: 28 ± 1 mm
St. mutans [11]
  IZD St. mutans: 25 ± 1 mm
E. coli [4]
  MIC: 0.0312 µg/mL (≈ 0.103 µM)
K. pneumonia [5]
  MIC: 0.0312 µg/mL (≈ 0.103 µM)
P. aeruginosa [12]
  MIC: 0.0312 µg/mL (≈ 0.103 µM)
A. baumannii [6]
  MIC: 0.0312 µg/mL (≈ 0.103 µM)
St. aureus [7]
  MIC: 0.0312 µg/mL (≈ 0.103 µM)
St. mutans [8]
  MIC: 0.0312 µg/mL (≈ 0.103 µM)
[13]
  IC50: 3800 ± 198 nM
  inhibitory activity against DHFR relative to trimethoprim: about two-fold
[14]
  MIC: 0.0312 µg/mL (≈ 0.103 µM)

## COc1ccc(C=C(C(=O)Nc2ccc(Cl)cc2)c2nc3ccccc3s2)cc1OC [4k, 2-(Benzo[d]thiazol-2-yl)-N-(4-chlorophenyl)-3-(3,4-dimethoxyphenyl)acrylamide]
E. coli [1]
  IZD E. coli: 22 ± 1.1 mm
K. pneumonia [2]
  IZD K. pneumonia: 25 ± 1.1 mm
P. aeruginosa [9]
  IZD P. aeruginosa: 20 ± 1 mm
A. baumannii [10]
  IZD A. baumannii: 23 ± 1.1 mm
St. aureus [3]
  IZD St. aureus: 25 ± 1.1 mm
St. mutans [11]
  IZD St. mutans: 18 ± 1.1 mm
E. coli [4]
  MIC: 0.125 µg/mL (≈ 0.277 µM)
K. pneumonia [5]
  MIC: 0.0625 µg/mL (≈ 0.139 µM)
P. aeruginosa [12]
  MIC: 0.125 µg/mL (≈ 0.277 µM)
A. baumannii [6]
  MIC: 0.0312 µg/mL (≈ 0.0693 µM)
St. aureus [7]
  MIC: 0.0625 µg/mL (≈ 0.139 µM)

## O=C(Nc1ccccc1)C(=Cc1ccc(OC(=O)c2ccccc2)cc1)c1nc2ccccc2s1 [4m, 4-(2-(Benzo[d]thiazol-2-yl)-3-oxo-3-(phenylamino)prop-1-en-1-yl)phenylbenzoate]
E. coli [1]
  IZD E. coli: 35 ± 1.1 mm
K. pneumonia [2]
  IZD K. pneumonia: 35 ± 1.1 mm
P. aeruginosa [9]
  IZD P. aeruginosa: 30 ± 1 mm
A. baumannii [10]
  IZD A. baumannii: 35 ± 1.1 mm
St. aureus [3]
  IZD St. aureus: 25 ± 1.1 mm
St. mutans [11]
  IZD St. mutans: 28 ± 1.1 mm
E. coli [4]
  MIC: 0.0312 µg/mL (≈ 0.0656 µM)
K. pneumonia [5]
  MIC: 0.0312 µg/mL (≈ 0.0656 µM)
P. aeruginosa [12]
  MIC: 0.0312 µg/mL (≈ 0.0656 µM)
A. baumannii [6]
  MIC: 0.0312 µg/mL (≈ 0.0656 µM)
St. aureus [7]
  MIC: 0.0312 µg/mL (≈ 0.0656 µM)
St. mutans [8]
  MIC: 0.0312 µg/mL (≈ 0.0656 µM)
[13]
  IC50: 2440 ± 128 nM
  inhibitory activity against DHFR relative to trimethoprim: about four-fold
[14]
  MIC: 0.0312 µg/mL (≈ 0.0656 µM)

## Cc1ccc(NC(=O)C(=Cc2ccc(OC(=O)c3ccccc3)cc2)c2nc3ccccc3s2)cc1 [4n, 4-(2-(Benzo[d]thiazol-2-yl)-3-oxo-3-(p-tolylamino)prop-1-en-1-yl)phenylbenzoate]
Any bacterial strain
  antibacterial activity against any bacterial strain: no antibacterial activity

## CC1(C)S[C@@H]2[C@H](NC(=O)[C@H](N)c3ccccc3)C(=O)N2[C@H]1C(=O)O [Ampicillin, reference compound]
St. aureus [3]
  IZD St. aureus: 29 ± 0.2 mm
St. mutans [11]
  IZD St. mutans: 22 ± 0.1 mm
St. aureus [7]
  MIC: 0.0625 µg/mL (≈ 0.179 µM)
St. mutans [8]
  MIC: 0.0625 µg/mL (≈ 0.179 µM)

## Clc1ccc(/C=N/c2nc3ccccc3s2)cc1 [II]
DHFR [15]
  IC50: 31.2 nM

## Nc1nc(N)c(-c2nc3ccccc3s2)c(CCCOC(=O)CCl)n1 [IV]
DHFR [16]
  IC50: 1300 nM

## O=[N+]([O-])c1cccc(/C=N/c2nc3ccccc3s2)c1 [I]
DHFR [15]
  IC50: 41.5 nM

## O=C1CSC(c2cccc(Cl)c2Cl)N1c1nc2cc(OC(F)(F)F)ccc2s1 (stereo not drawn) [VII]
[17]
  MIC: 100 to 250 µg/mL

## CC(=O)Nc1cc(-c2nc3ccccc3s2)ccc1OCC(=O)N/N=C/c1ccc(O)cc1 [V]
[18]
  MIC: 0.2 µg/mL (≈ 0.434 µM)
